Laboratory results reported in publication PMC11445722, “Synthesis, Characterization, and Biological Evaluation of Novel [M(η^6-arene)2]^+ (M = Re, ^99mTc) Hosted Terpyridines and Copper Complexes Thereof” (Inorganic Chemistry, 2024).

Experiments:
Assay type in all cases: cell-based
[1] = tested on: A549 (human lung adenocarcinoma); assay: Cell viability (resazurin) assay, 2D model, A549; conditions: 48 h incubation, three independent experiments, read-out: IC50 ± SEM, A549
Procedure: (§1) First, the cytotoxic activity of the compounds was investigated in different cancerous and noncancerous cell lines, namely, HT29 (human colon adenocarcinoma), A549 (human lung adenocarcinoma), and RPE-1 (human retinal epithelium). Cisplatin was used as a positive control. Cells were first incubated for 48 h with the complexes before cell viability was measured with a colorimetric resazurin assay.
(§2) Ce ll Culture: T he RPE-1 c ell l ine wa s cul ture d in DME M /F12 med iu m (G ibco) . T h e HT29 c ell line was
culture d in McCoy me dium (Gibco).
(§3) All ce ll line s were co mple me nted wit h 10% o f fetal calf ser um ( Gibco) and 100 U.mL-1 penicillin-
(§4) streptomycin mixture (Gibco) and maintained in a humidiﬁed atmosphere at 37 °C and 5% CO2.
(§5) Cell Viability Assay using a 2D Cellular Model: The cytotoxicity of the compounds was assessed by a
(§6) ﬂuorometric ce ll viability assay using Resazurin (Acros Organics) . Brieﬂy, ce l ls were s ee de d in tri pl ic ate
(§7) in 96-well plates at a 4×10^3 cells/well density in 100 μL Gibco McCoy’s 5A (1X) + GlutaMAX (Modiﬁed
(§8) Medium) with 10 % FBS and 1% Penicillin/Streptomycin. AŌer 24 h, cells were treated with increasing
(§9) concentraƟons of the compo unds and cisplaƟn. DiluƟons for the compounds were prepared f rom 10
(§10) mM stock in DMSO which were diluted to 100 - 0,01 μM with medium. AŌer 48 h of incubaƟon, the
(§11) medium was removed and 100 μL of complete medium containing resazurin (0.2 mg.mL-1 ﬁnal
(§12) concentraƟon) was adde d. AŌer 4 h of incubaƟon at 37 °C, the ﬂuoresc ence signal of the resoruﬁn
(§13) values were then calculated using the GraphPad Prism soŌware.

[2] = tested on: RPE-1 (human retinal epithelium); assay: Cell viability (resazurin) assay, 2D model, RPE-1; conditions: 48 h incubation, noncancerous cell line, three independent experiments, read-out: IC50 ± SEM, RPE-1
Procedure: as §1, §2
culture d in McCoy me dium (Gibco).
as §3, §4, §5, §6, §7, §8, §9, §10, §11, §12, §13

[3] = tested on: HT29 (human colon adenocarcinoma); assay: Cell viability (resazurin) assay, 2D model, HT29; conditions: 48 h incubation, three independent experiments, read-out: IC50 ± SEM, HT29
Procedure: as §1, §2
culture d in McCoy me dium (Gibco).
as §3, §4, §5, §6, §7, §8, §9, §10, §11, §12, §13

| Structure (SMILES) | IC50 [1] | IC50 [2] | IC50 [3] |
| --- | --- | --- | --- |
| N.N.[Cl][Pt][Cl] [cisplatin] | 10.9 ± 0.17 µM | 22.6 ± 2.74 µM | 7.84 ± 0.57 µM |
| [Cl][Cu][Cl] [CuCl2] | > 100 µM | > 100 µM | > 100 µM |
| N.[O]=[Re](=[O])(=[O])[OH] [(NH4)[ReO4]] | > 100 µM | > 100 µM | > 100 µM |
